Test results published in PubChem BioAssay AID1259407 (Chemical Carcinogenesis Research Information System (CCRIS), 2018).
The source made the active and inactive calls. No rule for the calls is given here.

Test system: CCRIS mutagenicity, Ames/micronucleus/aberration tests
Assay: CCRIS mutagenicity studies

CC=O
mutagenic call (End Point: In vitro chromosomal aberrations, Test System: Chinese hamster lung (CHL/IU) cells, Metabolic Activation: None): active; positive (structural changes)
mutagenic call (End Point: In vitro chromosomal aberrations, Test System: Chinese hamster lung (CHL/IU) cells, Metabolic Activation: Rat, Liver, S9, Phenobarbital and 5,6-benzoflavone): active; positive (structural changes)
mutagenic call (End Point: In vivo micronucleus, Test System: Peripheral blood reticulocytes, Species: Mouse, Strain/Sex: Aldh2+/+ aldehyde dehydrogenase-2 sufficient /male, Route: Inhalation): inactive; negative
mutagenic call (End Point: In vivo micronucleus, Test System: Peripheral blood reticulocytes, Species: Mouse, Strain/Sex: Aldh2+/+ aldehyde dehydrogenase-2 sufficient /male, Route: Oral): inactive; negative
mutagenic call (End Point: In vivo micronucleus, Test System: Peripheral blood reticulocytes, Species: Mouse, Strain/Sex: Aldh2-/- aldehyde dehydrogenase-2 null /male, Route: Inhalation): active; positive
mutagenic call (End Point: In vivo micronucleus, Test System: Peripheral blood reticulocytes, Species: Mouse, Strain/Sex: Aldh2-/- aldehyde dehydrogenase-2 null /male, Route: Oral): active; positive
mutagenic call (Test System: AMES SALMONELLA TYPHIMURIUM, Strain/Indicator: TA98, Metabolic Activation: HAMSTER, LIVER, S-9, AROCLOR 1254, Method: STANDARD PLATE): inactive; negative
mutagenic call (Test System: AMES SALMONELLA TYPHIMURIUM, Strain/Indicator: TA98, Metabolic Activation: NONE, Method: GAS EXPOSURE): inactive; negative
mutagenic call (Test System: AMES SALMONELLA TYPHIMURIUM, Strain/Indicator: TA98, Metabolic Activation: NONE, Method: PREINCUBATION): inactive; negative
mutagenic call (Test System: AMES SALMONELLA TYPHIMURIUM, Strain/Indicator: TA98, Metabolic Activation: NONE, Method: STANDARD PLATE): inactive; negative
mutagenic call (Test System: AMES SALMONELLA TYPHIMURIUM, Strain/Indicator: TA98, Metabolic Activation: RAT LIVER S-9, PHENOBARBITAL AND BETA-NAPHTHOFLAVONE, Method: PREINCUBATION): inactive; negative
mutagenic call (Test System: AMES SALMONELLA TYPHIMURIUM, Strain/Indicator: TA98, Metabolic Activation: RAT, LIVER, S-9, AROCLOR 1254, Method: PREINCUBATION): inactive; negative
mutagenic call (Test System: AMES SALMONELLA TYPHIMURIUM, Strain/Indicator: TA98, Metabolic Activation: RAT, LIVER, S-9, AROCLOR 1254, Method: STANDARD PLATE): inactive; negative
mutagenic call (Test System: AMES SALMONELLA TYPHIMURIUM, Strain/Indicator: TA98, Metabolic Activation: RAT, LIVER, S-9, PHENOBARBITAL AND BETA-NAPHTHOFLAVONE, Method: GAS EXPOSURE): inactive; negative
mutagenic call (Test System: AMES SALMONELLA TYPHIMURIUM, Strain/Indicator: TA100, Metabolic Activation: HAMSTER, LIVER, S-9, AROCLOR 1254, Method: STANDARD PLATE): inactive; negative
mutagenic call (Test System: AMES SALMONELLA TYPHIMURIUM, Strain/Indicator: TA100, Metabolic Activation: MOUSE LIVER S-9, AROCLOR 1254, Method: VAPOR PHASE): inactive; negative
mutagenic call (Test System: AMES SALMONELLA TYPHIMURIUM, Strain/Indicator: TA100, Metabolic Activation: NONE, Method: GAS EXPOSURE): inactive; negative
mutagenic call (Test System: AMES SALMONELLA TYPHIMURIUM, Strain/Indicator: TA100, Metabolic Activation: NONE, Method: PREINCUBATION): inactive; negative
mutagenic call (Test System: AMES SALMONELLA TYPHIMURIUM, Strain/Indicator: TA100, Metabolic Activation: NONE, Method: STANDARD PLATE): inactive; negative
mutagenic call (Test System: AMES SALMONELLA TYPHIMURIUM, Strain/Indicator: TA100, Metabolic Activation: NONE, Method: VAPOR PHASE): inactive; negative
mutagenic call (Test System: AMES SALMONELLA TYPHIMURIUM, Strain/Indicator: TA100, Metabolic Activation: RAT LIVER S-9, AROCLOR 1254, Method: VAPOR PHASE): inactive; negative
mutagenic call (Test System: AMES SALMONELLA TYPHIMURIUM, Strain/Indicator: TA100, Metabolic Activation: RAT LIVER S-9, PHENOBARBITAL AND BETA-NAPHTHOFLAVONE, Method: PREINCUBATION): inactive; negative
mutagenic call (Test System: AMES SALMONELLA TYPHIMURIUM, Strain/Indicator: TA100, Metabolic Activation: RAT, LIVER, S-9, AROCLOR 1254, Method: PREINCUBATION): inactive; negative
mutagenic call (Test System: AMES SALMONELLA TYPHIMURIUM, Strain/Indicator: TA100, Metabolic Activation: RAT, LIVER, S-9, AROCLOR 1254, Method: STANDARD PLATE): inactive; negative
mutagenic call (Test System: AMES SALMONELLA TYPHIMURIUM, Strain/Indicator: TA100, Metabolic Activation: RAT, LIVER, S-9, PHENOBARBITAL AND BETA-NAPHTHOFLAVONE, Method: GAS EXPOSURE): inactive; negative
mutagenic call (Test System: AMES SALMONELLA TYPHIMURIUM, Strain/Indicator: TA102, Metabolic Activation: MOUSE LIVER S-9, AROCLOR 1254, Method: VAPOR PHASE): inactive; negative
mutagenic call (Test System: AMES SALMONELLA TYPHIMURIUM, Strain/Indicator: TA102, Metabolic Activation: NONE, Method: PREINCUBATION): inactive; negative
mutagenic call (Test System: AMES SALMONELLA TYPHIMURIUM, Strain/Indicator: TA102, Metabolic Activation: NONE, Method: VAPOR PHASE): inactive; negative
mutagenic call (Test System: AMES SALMONELLA TYPHIMURIUM, Strain/Indicator: TA102, Metabolic Activation: RAT, LIVER, S-9, AROCLOR 1254, Method: PREINCUBATION): inactive; negative
mutagenic call (Test System: AMES SALMONELLA TYPHIMURIUM, Strain/Indicator: TA104, Metabolic Activation: MOUSE LIVER S-9, AROCLOR 1254, Method: VAPOR PHASE): inactive; negative
mutagenic call (Test System: AMES SALMONELLA TYPHIMURIUM, Strain/Indicator: TA104, Metabolic Activation: NONE, Method: VAPOR PHASE): inactive; negative
mutagenic call (Test System: AMES SALMONELLA TYPHIMURIUM, Strain/Indicator: TA104, Metabolic Activation: RAT LIVER S-9, AROCLOR 1254, Method: VAPOR PHASE): inactive; negative
mutagenic call (Test System: AMES SALMONELLA TYPHIMURIUM, Strain/Indicator: TA1535, Metabolic Activation: HAMSTER, LIVER, S-9, AROCLOR 1254, Method: STANDARD PLATE): inactive; negative
mutagenic call (Test System: AMES SALMONELLA TYPHIMURIUM, Strain/Indicator: TA1535, Metabolic Activation: NONE, Method: GAS EXPOSURE): inactive; negative
mutagenic call (Test System: AMES SALMONELLA TYPHIMURIUM, Strain/Indicator: TA1535, Metabolic Activation: NONE, Method: PREINCUBATION): inactive; negative
mutagenic call (Test System: AMES SALMONELLA TYPHIMURIUM, Strain/Indicator: TA1535, Metabolic Activation: NONE, Method: STANDARD PLATE): inactive; negative
mutagenic call (Test System: AMES SALMONELLA TYPHIMURIUM, Strain/Indicator: TA1535, Metabolic Activation: RAT LIVER S-9, PHENOBARBITAL AND BETA-NAPHTHOFLAVONE, Method: PREINCUBATION): inactive; negative
mutagenic call (Test System: AMES SALMONELLA TYPHIMURIUM, Strain/Indicator: TA1535, Metabolic Activation: RAT, LIVER, S-9, AROCLOR 1254, Method: STANDARD PLATE): inactive; negative
mutagenic call (Test System: AMES SALMONELLA TYPHIMURIUM, Strain/Indicator: TA1535, Metabolic Activation: RAT, LIVER, S-9, PHENOBARBITAL AND BETA-NAPHTHOFLAVONE, Method: GAS EXPOSURE): inactive; negative
mutagenic call (Test System: AMES SALMONELLA TYPHIMURIUM, Strain/Indicator: TA1537, Metabolic Activation: HAMSTER, LIVER, S-9, AROCLOR 1254, Method: STANDARD PLATE): inactive; negative
mutagenic call (Test System: AMES SALMONELLA TYPHIMURIUM, Strain/Indicator: TA1537, Metabolic Activation: NONE, Method: GAS EXPOSURE): inactive; negative
mutagenic call (Test System: AMES SALMONELLA TYPHIMURIUM, Strain/Indicator: TA1537, Metabolic Activation: NONE, Method: PREINCUBATION): inactive; negative
mutagenic call (Test System: AMES SALMONELLA TYPHIMURIUM, Strain/Indicator: TA1537, Metabolic Activation: NONE, Method: STANDARD PLATE): inactive; negative
mutagenic call (Test System: AMES SALMONELLA TYPHIMURIUM, Strain/Indicator: TA1537, Metabolic Activation: RAT LIVER S-9, PHENOBARBITAL AND BETA-NAPHTHOFLAVONE, Method: PREINCUBATION): inactive; negative
mutagenic call (Test System: AMES SALMONELLA TYPHIMURIUM, Strain/Indicator: TA1537, Metabolic Activation: RAT, LIVER, S-9, AROCLOR 1254, Method: STANDARD PLATE): inactive; negative
mutagenic call (Test System: AMES SALMONELLA TYPHIMURIUM, Strain/Indicator: TA1537, Metabolic Activation: RAT, LIVER, S-9, PHENOBARBITAL AND BETA-NAPHTHOFLAVONE, Method: GAS EXPOSURE): inactive; negative
mutagenic call (Test System: AMES SALMONELLA TYPHIMURIUM, Strain/Indicator: TA1538, Metabolic Activation: HAMSTER, LIVER, S-9, AROCLOR 1254, Method: STANDARD PLATE): inactive; negative
mutagenic call (Test System: AMES SALMONELLA TYPHIMURIUM, Strain/Indicator: TA1538, Metabolic Activation: NONE, Method: PREINCUBATION): inactive; negative
mutagenic call (Test System: AMES SALMONELLA TYPHIMURIUM, Strain/Indicator: TA1538, Metabolic Activation: NONE, Method: STANDARD PLATE): inactive; negative
mutagenic call (Test System: AMES SALMONELLA TYPHIMURIUM, Strain/Indicator: TA1538, Metabolic Activation: RAT LIVER S-9, PHENOBARBITAL AND BETA-NAPHTHOFLAVONE, Method: PREINCUBATION): inactive; negative
mutagenic call (Test System: AMES SALMONELLA TYPHIMURIUM, Strain/Indicator: TA1538, Metabolic Activation: RAT, LIVER, S-9, AROCLOR 1254, Method: STANDARD PLATE): inactive; negative
mutagenic call (Test System: E. COLI, Strain/Indicator: WP2UVRA, Metabolic Activation: NONE, Method: GAS EXPOSURE): inactive; negative
mutagenic call (Test System: E. COLI, Strain/Indicator: WP2UVRA, Metabolic Activation: RAT, LIVER, S-9, PHENOBARBITAL AND BETA-NAPHTHOFLAVONE, Method: GAS EXPOSURE): inactive; negative
mutagenic call (Test System: E.COLI, Strain/Indicator: WP2UVRA, Metabolic Activation: NONE, Method: PREINCUBATION): inactive; negative
mutagenic call (Test System: E.COLI, Strain/Indicator: WP2UVRA, Metabolic Activation: RAT LIVER S-9, PHENOBARBITAL AND BETA-NAPHTHOFLAVONE, Method: PREINCUBATION): inactive; negative
mutagenic call (Test System: HUMAN SKIN FIBROBLASTS, Strain/Indicator: 6-THIOGUANINE, Metabolic Activation: NONE): active; positive
mutagenic call (Test System: MOUSE LYMPHOMA, Strain/Indicator: L5178Y (TK+/TK-), Metabolic Activation: RAT, LIVER, S-9, AROCLOR 1254, Method: SUSPENSION/PLATE): active; positive. reevaluation of results: inconclusive
